Reference: article PMC6587565 (Diabetes, Obesity & Metabolism, 2018)
Read-outs that look alike come from different tables or passages of the source.

What was measured:
[1] = tested on: plasma glucose (PG) in patients with type 1 diabetes mellitus; assay type: in vivo, human; conditions: for AUE0-30min / AUE0-240min (area under plasma glucose excursions above baseline) / CE30min (plasma glucose excursion at 30 minutes) / CEmax (maximum plasma glucose excursion) / tCEmax (time to maximum plasma glucose excursion) / tPG increase ≥ 20 mg/dL (time to increase in plasma glucose ≥[…]) / tPG ≥70 mg/dL (time to reach plasma glucose ≥[…]): T1DM patients; for AUE0-30min / AUE0-240min (area under plasma glucose excursions above baseline) / CE30min (plasma glucose excursion at 30 minutes) / CEmax (maximum plasma glucose excursion): mean (SD), SD; for tCEmax (time to maximum plasma glucose excursion) / tPG increase ≥ 20 mg/dL (time to increase in plasma glucose ≥[…]) / tPG ≥70 mg/dL (time to reach plasma glucose ≥[…]): median (range)
[2] = assay type: in vivo, human
[3] = tested on: patients with type 1 diabetes mellitus; assay: Safety: adverse events, hypoglycaemic episodes, local tolerability; assay type: in vivo, human
[4] = euglycaemia, single s.c. dose 0.6 mg, N=17
[5] = hypoglycaemia, single s.c. dose 0.03 mg, N=17
[6] = hypoglycaemia, single s.c. dose 0.08 mg, N=17
[7] = hypoglycaemia, single s.c. dose 0.2 mg, N=17
[8] = hypoglycaemia, single s.c. dose 0.6 mg, N=17
[9] = hypoglycaemia, single s.c. dose 0.03 mg, T1DM patients, mean (SD), N=14, SD

For CC(C)C[C@H](NC(=O)[C@H](Cc1c[nH]c2ccccc12)NC(=O)[C@H](CCCCN)NC(=O)[C@@H](NC(=O)[C@H](Cc1ccccc1)NC(=O)[C@H](CCC(=O)O)NC(=O)[C@H](CCC(=O)O)NC(=O)[C@H](C)NC(=O)[C@H](CCCNC(=N)N)NC(=O)[C@H](C)NC(=O)C(C)(C)NC(=O)[C@H](CC(=O)O)NC(=O)[C@H](CC(C)C)NC(=O)[C@H](Cc1ccc(O)cc1)NC(=O)[C@H](CCCCN)NC(=O)[C@H](CO)NC(=O)[C@H](Cc1ccc(O)cc1)NC(=O)[C@H](CC(=O)O)NC(=O)[C@H](CO)NC(=O)[C@@H](NC(=O)[C@H](Cc1ccccc1)NC(=O)[C@@H](NC(=O)CNC(=O)[C@H](CCC(N)=O)NC(=O)[C@H](CO)NC(=O)[C@@H](N)Cc1c[nH]cn1)[C@@H](C)O)[C@@H](C)O)C(C)C)C(=O)N[C@@H](CCC(=O)O)C(=O)N[C@@H](CO)C(=O)N[C@H](C(=O)O)[C@@H](C)O [Dasiglucagon, dasiglucagon], the “Median time (range) to an increase in PG of at least […] (20 mg/dL)” value ([1]; 0.03 mg s.c., at both euglycaemia and hypoglycaemia) was < 20 (18‐19.5) minutes, the AUE0-30min [1, 4] was 18.3 (5.25) mg*h/dL and the “AUE0-240min (area under plasma glucose excursions above baseline)” value (from here on “AUE0-240min”) [1, 4] was 479 (159) mg*h/dL. For the same compound, the “CE30min (plasma glucose excursion at 30 minutes)” value (from here on “CE30min”) [1, 4] was 79.8 (23.4) mg/dL, the “CEmax (maximum plasma glucose excursion)” value [1, 4] was 165 (46.1) mg/dL and the “tCEmax (time to maximum plasma glucose excursion)” value (from here on “tCEmax”) [1, 4] was 90.0 (70‐240) min. The “tPG increase ≥ 20 mg/dL (time to increase in plasma glucose ≥[…])” value (“tPG increase ≥ 20 mg/dL” for short) [1, 4] was 10.0 (8‐14) min, the “Patients achieving a PG level of at least […] within 30 minutes post-dose” value ([1]; hypoglycaemia, dose levels of 0.08 mg and above) was 100% and the “Patients achieving a PG level of at least […] within 30 minutes post-dose” value ([1]; hypoglycaemia, lowest dose level (0.03 mg)) was 70.6%. The AUE0-30min [1, 5] was 4.60 (5.24) mg*h/dL, the “AUE0-240min” value [1, 5] was 70.6 (100) mg*h/dL and the “CE30min” value [1, 5] was 23.7 (24.9) mg/dL. For the same compound, the “CEmax (maximum plasma glucose excursion)” value [1, 5] was 37.9 (38.9) mg/dL, the “tPG increase ≥ 20 mg/dL” value ([1]; hypoglycaemia, single s.c. dose 0.03 mg, N=10) was 19.5 (12‐42) min and the “tPG ≥70 mg/dL (time to reach plasma glucose ≥[…])” value (from here on “tPG ≥70 mg/dL”) ([1]; hypoglycaemia, single s.c. dose 0.03 mg, N=13) was 14.0 (5‐37) min. The “tCEmax” value [1, 5] was 50.0 (0‐90) min, the AUE0-30min [1, 6] was 14.3 (10.1) mg*h/dL and the “AUE0-240min” value [1, 6] was 249 (201) mg*h/dL. The “CE30min” value [1, 6] was 63.9 (38.6) mg/dL, the “CEmax (maximum plasma glucose excursion)” value [1, 6] was 106 (61.1) mg/dL and the “tCEmax” value [1, 6] was 70.0 (50‐90) min. The “tPG increase ≥ 20 mg/dL” value [1, 6] was 14.0 (7‐48) min, the “tPG ≥70 mg/dL” value [1, 6] was 10.0 (2‐27) min and the AUE0-30min [1, 7] was 19.0 (6.43) mg*h/dL. The “AUE0-240min” value [1, 7] was 406 (175) mg*h/dL, the “CE30min” value [1, 7] was 86.8 (27.2) mg/dL and the “CEmax (maximum plasma glucose excursion)” value [1, 7] was 154 (48.4) mg/dL. The “tCEmax” value [1, 7] was 90.0 (70‐150) min, the “tPG increase ≥ 20 mg/dL” value [1, 7] was 11.0 (8‐20) min and the “tPG ≥70 mg/dL” value [1, 7] was 6.0 (5‐11) min. For the same compound, the AUE0-30min [1, 8] was 21.9 (5.68) mg*h/dL, the “AUE0-240min” value [1, 8] was 535 (187) mg*h/dL and the “CE30min” value [1, 8] was 94.2 (21.9) mg/dL. For the same compound, the “CEmax (maximum plasma glucose excursion)” value [1, 8] was 192 (54.1) mg/dL, the “tCEmax” value [1, 8] was 90.0 (70‐150) min and the “tPG increase ≥ 20 mg/dL” value [1, 8] was 9.00 (8‐14) min. The “tPG ≥70 mg/dL” value [1, 8] was 6.0 (2‐8) min, the AUC0-inf ([2]; euglycaemia, single s.c. dose 0.6 mg, T1DM patients, mean (SD), N=17, SD) was 3710 (585) pmol*h/L and the Tmax ([2]; euglycaemia, single s.c. dose 0.6 mg, T1DM patients, median (range), N=17) was 0.5 (0.25‐1) h. For the same compound, the Tmax ([2]; human, plasma, sc, 0.03 mg) was 30 min, the CL/F ([2]; human, plasma, sc, 0.03 mg, SD) was 863 mL/min and the half-life ([2]; human, plasma, sc, 0.03 mg, SD) was 22.9 min. For the same compound, the Tmax ([2]; human, plasma, sc, 0.08 mg) was 30 min, the CL/F ([2]; human, plasma, sc, 0.08 mg, SD) was 688 mL/min and the half-life ([2]; human, plasma, sc, 0.08 mg, SD) was 28.4 min. It also gave a Tmax ([2]; human, plasma, sc, 0.2 mg) of 30 min, a half-life ([2]; human, plasma, sc, 0.2 mg, SD) of 33.9 min and a Tmax ([2]; human, plasma, sc, 0.6 mg) of 30 min. The AUC0-inf [2, 9] was 182 (45.9) pmol*h/L, the “CL/f (total body clearance)” value [2, 9] was 52.6 (16.7) L/h and the AUC0-240min ([2]; hypoglycaemia, single s.c. dose 0.03 mg, T1DM patients, mean (SD), N=17, SD) was 174 (43.1) pmol*h/L. For the same compound, the Tmax ([2]; hypoglycaemia, single s.c. dose 0.03 mg, T1DM patients, median (range), N=17) was 0.5 (0.25‐1) h, the “t1/2 (terminal elimination half-life)” value ([2]; hypoglycaemia, single s.c. dose 0.08 mg, T1DM patients, mean (SD), N=16, SD) was 0.472 (0.154) h and the Tmax ([2]; hypoglycaemia, single s.c. dose 0.08 mg, T1DM patients, median (range), N=17) was 0.5 (0.25‐1) h. For the same compound, the Total hypoglycaemic events ([3]; 17 completers, range of small doses (0.03-0.2 mg)) was 18 and the “Overall safety and tolerability” value ([3]; all doses (0.03-0.6 mg s.c.)) was “safe and well tolerated”.
